Experimental data as given in patent publication US20220031668A1, “METHODS OF INHIBITING PROCOLLAGEN-LYSINE, 2-OXOGLUTARATE 5-DIOXYGENASE 2” (University of Kentucky Research Foundation, priority 2020, published 2022).

Test system: MDA-MB-231 cells
Assay: 3D culture assay of cancer cell invasion
Type: cell-based, human
Conditions: for inhibitory activity on breast cancer progression (invasive growth) in 3D culture: 20 μM, 3D culture for 3 days
Procedure: 3D culture assay is an established platform to study cancer cell invasion, and the ability of compounds to attenuate such cell invasion (Zhang 2015). […] The MDA-MB-231 cell line is an epithelial, human breast cancer cell line.
Briefly, to conduct the 3D culture assay, 12-well plates were coated with […], matrigel per well. After incubating the plates at 37° C. for 15 minutes, MDA-MB-231 cells were plated with about 300 cells per well. The plates were allowed to stand for 45 min in the 37° C. incubator to let the cells deposit into the matrigel. The cells were then covered with 10% matrigel, which contained test compounds. […]

Structure (SMILES)	inhibitory activity on breast cancer progression (invasive growth) in 3D culture	invasive growth of MDA-MB-231 cells in 3D culture (10 μM)
CN1CCCC(n2nc(Cc3ccc(Cl)cc3)c3ccccc3c2=O)CC1 (stereo not drawn) [Azelastine]	inhibitory activity	–
N=C(N)NC(=O)c1nc(Cl)c(N)nc1N [Amiloride]	inhibitory activity	–
C[N+](C)(C)CC(O)CC(=O)O (racemic) [DL-Carnitine]	inhibitory activity	–
O=C(O)c1cc(O)c(O)c(O)c1 [Gallic acid]	inhibitory activity	–
C[N+](C)(C)C[C@H](O)CC(=O)[O-] [L-Carnitine]	inhibitory activity	–
CN(C)C(=O)C(CCN1CCC(O)(c2ccc(Cl)cc2)CC1)(c1ccccc1)c1ccccc1 [Loperamide]	–	inhibits invasive growth
